{"source": "patent US10562848B2", "about": "“Inhibitors of TNF superfamily costimulatory interactions and methods for uses of the same” (UNIVERSITY OF MIAMI, priority 2015, dated 2020)", "key": {"human CD40-CD40L": {"target": "T1, human CD40-CD40L (Homo sapiens, UniProt P29965)", "T1 construct": "purchased Enzo Life Sciences (San Diego, Calif.)", "T1 sequence (P29965 116-261 limits assumed)": "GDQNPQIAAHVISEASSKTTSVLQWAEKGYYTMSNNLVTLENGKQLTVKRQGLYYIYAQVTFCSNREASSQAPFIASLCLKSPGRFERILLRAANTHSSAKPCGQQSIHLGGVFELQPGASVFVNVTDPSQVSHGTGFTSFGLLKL", "assay": "Cell-free ELISA-type CD40-CD40L binding inhibition assay", "protocol": "Compounds according to the disclosure were assessed for their ability to inhibit the binding of tagged ligands to plate-bound receptors using ELISA-type 96-well plate-based cell-free assays as described in the literature (see Margolles-Clark et al, J Mol Med 87:1133-1143 (2009); Margolles-Clark et al., Chem Biol Drug Des 76:305-313 (2010); Song et al., Br J Pharmacol 171:4955-4969 (2014); and Ganesan et al., Biochem Pharmacol 81:810-818 (2011)).\nRecombinant receptors (hCD40:Fc, TNF-R1:Fc) and tagged ligands (hCD154, MegaCD40L, and TNF-α), were obtained from Enzo Life Sciences (San Diego, Calif.). Microtiter plates (Nunc F Maxisorp; 96-well) were coated overnight at 4° C. with 100 μL/well of Fc chimeric receptors diluted in PBS 7.2. This was followed by blocking with 200 μL/well of blocking solution (PBS 7.2, 0.05% Tween-20, 1% BSA) for 1 hour at room temperature. […] Either anti-FLAG-HRP or streptavidin-HRP conjugate was used to detect the bound FLAG-tagged or biotinylated ligand, respectively. Plates were washed three times before the addition of 120 μL/well of HRP substrate TMB (3, 3′, 5, 5′-tetramethylbenzidine) and kept in the dark for 15-30 min. The reaction was stopped using 30 μL 1M H2SO4, and the absorbance was read at 450 nm. Stock solutions of compounds at 10 mM in DMSO were used.\n(§1) Typical concentrations used were as follows—receptors: 0.3 μg/mL for CD40, TNF-R1, and RANK; 0.6 μg/mL for BAFF-R, OX40, and 4-1BB; and 2 μg/mL for EGF-R-ligands: 0.02 μg/mL for CD40L, TNFα, and RANKL; 0.2 μg/ml for BAFF, OX40L, 4-1BBL; and 0.3 μg/mL for EGF. Assays were done in duplicate or triplicate per plate and repeated at least three times; the averaged data were normalized and used for data fitting and analysis. Binding data were fitted using the standard log inhibitor versus response model in GraphPad Prism to determine the corresponding IC50 values."}, "OX40-OX40L": {"target": "T2, OX40-OX40L (Homo sapiens, UniProt P23510+P43489)", "T2 sequence (P43489 29-214 limits assumed)": "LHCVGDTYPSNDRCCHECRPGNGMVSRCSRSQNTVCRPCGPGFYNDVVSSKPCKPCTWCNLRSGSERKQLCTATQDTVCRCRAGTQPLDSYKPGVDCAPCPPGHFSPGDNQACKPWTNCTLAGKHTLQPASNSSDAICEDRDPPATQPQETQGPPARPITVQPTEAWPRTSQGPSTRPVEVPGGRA", "T2 sequence (P23510 51-183 limits assumed)": "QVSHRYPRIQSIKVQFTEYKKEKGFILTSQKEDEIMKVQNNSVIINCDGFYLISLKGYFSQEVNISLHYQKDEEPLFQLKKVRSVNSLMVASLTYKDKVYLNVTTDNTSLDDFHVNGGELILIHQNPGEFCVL", "assay": "Cell-free ELISA-type OX40 binding inhibition assay", "conditions": "Table 2", "protocol": "as §1"}, "[1]": {"system": "CD40L-induced NF-κB activation in CD40 sensor cells (HEK Blue)", "assay": "Inhibition of CD40L-induced NF-κB activation in CD40 sensor cells (HEK-Blue)", "type": "cell-based, human", "conditions": "for IC50: Homo sapiens, CD40L 20 ng/mL, 18 h", "source_text": "Activities of the compounds of the disclosure were confirmed in cell-based assays. As a first example, TNF-R1 and CD40 expressing sensor cells (HEK-Blue; InvivoGen, San Diego, Calif.) were used as described in the literature (see Song et al., Br J Pharmacol 171:4955-4969 (2014) and Cechin et al., Steroids 85:36-43 (2014)).\nCells were maintained in DMEM at 80% confluence for each experiment. Cells were trypsinized and re-suspended in the same medium with 1% FBS and seeded on 96-well microtiter plates at a density of 1×10^5 cells/well in the absence and presence of various concentrations of compounds diluted in the same media. For ligand mediated stimulation, final concentrations of recombinant human TNFα (2 ng/mL) and CD40L (20 ng/mL) were maintained in the wells for this purpose. After 18-hour incubation at 37° C., 20 μL supernatant of each well were taken and added to another 96-well microtiter plate containing 180 μL/well of QUANTI-Blue (InvivoGen, CA). The level of SEAP was determined after 30-minute incubation at 37° C. by reading at 625 nm using a spectrophotometer. […] Data are average±SD (normalized to CD40L-activated cells alone) for n=4 independent experiments with duplicates for each condition."}, "[2]": {"system": "CD40L-induced MHC-II expression in human THP-1 cells", "assay": "cells", "conditions": "for IC50: Homo sapiens, THP-1, 48 h, read-out: IC50, inhibition of CD40L-induced THP-1 activation", "protocol": "As a further assessment, the ability of the compounds of the disclosure to inhibit the CD40L-induced activation of THP-1 cells, which can serve as surrogate dendritic cells, was evaluated using an assay as described previously (see Margolles-Clark et al, J Mol Med 87:1133-1143 (2009)).\nTHP-1 human myeloid cells obtained from American Type Culture Collection (ATCC; Manasses, Va.) were cultivated in RPMI media 1640 supplemented with 10% FBS, 100 U/mL penicillin, and streptomycin 100 μg/mL to a density of 1×10^6 cells/mL. Cells were centrifuged and cultured in the same medium without FBS for a period of 24 hours. Starved cells were placed in fresh medium without FBS and stimulated with 0.5 μg/mL of rhCD154 (MegaCD40L; Enzo Life Sciences), in the presence of various concentrations of test compounds. After 48 h, cells were labeled with biotin conjugated monoclonal anti-human CD40 antibody (clone LOB7/6) (LifeSpan BioSciences, Seattle, Wash.), detected with allophycocyanin-eFluor™ 780 streptavidin (eBioscience, San Diego, Calif.), and labeled with monoclonal anti-human HLA-DR antibody APC-Alexa Fluor® 750 (clone LN3) (eBioscience, San Diego, Calif.). All cultivations were carried out for 48 h at 37° C., 90% humidity, and 5% CO2. Stained THP-1 cells were analyzed using a BD LSR II Flow Cytometer (BD Biosciences, San Jose, Calif.). Cell surface markers were quantified in live cells only after gating out 4′,6-diamidino-2-phenylindole (DAPI) labeled cells. All experiments were repeated at least three times.\nData are average±SD in live (DAPI^−) cells from five independent experiments and were analyzed by […] one-way ANOVA followed by Dunnett's multiple comparison test, *p<0.05, **p<0.01, ****p<0.0001 vs. cells+huCD40L."}, "[3]": {"conditions": "IC50, inhibition of the CD40-CD40L interaction, cell-free binding, n=3 independent experiments"}}, "note": "Where two headings read alike, the source gives them in different places."}
{"smiles": "O=C(Nc1ccc(-c2ccc(C(=O)Nc3ccc(C(=O)O)c4ccccc34)cc2)cc1)c1ccc([N+](=O)[O-])cc1", "note": "[Compound 25441]", "values": [{"measurement": "IC50", "setting": "human CD40-CD40L; [3]", "result": 0.36, "unit": "µM"}, {"measurement": "IC50", "setting": "human CD40-CD40L; Table 2, read-out: IC50 CD40", "result": 0.4, "unit": "µM"}, {"measurement": "inhibition of human CD40-CD40L binding (in words)", "setting": "human CD40-CD40L; cell-free binding", "result": "concentration-dependent inhibition"}, {"measurement": "IC50", "setting": "OX40-OX40L", "result": 2.7, "unit": "µM"}, {"measurement": "inhibition of CD40L-induced NF-κB activation (in words)", "setting": "[1]", "result": "concentration-dependent inhibition"}, {"measurement": "IC50", "setting": "[1]", "result": 9, "unit": "µM"}, {"measurement": "IC50", "setting": "[2]", "result": "~10", "unit": "µM"}, {"measurement": "inhibition of CD40L-induced MHC-II expression in THP-1 cells (in words)", "setting": "[2]", "result": "concentration-dependent inhibition"}]}
{"smiles": "O=C(Nc1ccc(-c2ccc(C(=O)Nc3cccc4cccc(S(=O)(=O)O)c34)cc2)cc1)c1ccc([N+](=O)[O-])cc1", "note": "[Compound 21041, 8-[(4′-[4-nitrobenzamido]biphenyl-4-yl-carbonyl)amino]naphthalene-1-sulfonic acid]", "values": [{"measurement": "IC50", "setting": "human CD40-CD40L; [3]", "result": 0.31, "unit": "µM"}, {"measurement": "IC50", "setting": "human CD40-CD40L; IC50 CD40, Table 2", "result": 0.3, "unit": "µM"}, {"measurement": "inhibition of human CD40-CD40L binding (in words)", "setting": "human CD40-CD40L; cell-free binding", "result": "concentration-dependent inhibition"}, {"measurement": "IC50", "setting": "OX40-OX40L", "result": 605, "unit": "µM"}, {"measurement": "inhibition of CD40L-induced NF-κB activation (in words)", "setting": "[1]", "result": "concentration-dependent inhibition"}, {"measurement": "IC50", "setting": "[1]", "result": 10, "unit": "µM"}, {"measurement": "IC50", "setting": "[2]", "result": "~10", "unit": "µM"}, {"measurement": "inhibition of CD40L-induced MHC-II expression in THP-1 cells (in words)", "setting": "[2]", "result": "concentration-dependent inhibition"}]}
{"smiles": "COC(=O)c1ccc(C(=O)Nc2ccc(-c3ccc(C(=O)Nc4cccc5cccc(S(=O)(=O)O)c45)cc3)cc2)cc1", "note": "[Compound 21045]", "values": [{"measurement": "IC50", "setting": "human CD40-CD40L; Table 2, read-out: IC50 CD40", "result": 0.1, "unit": "µM"}, {"measurement": "inhibition of human CD40-CD40L binding (in words)", "setting": "human CD40-CD40L; cell-free binding", "result": "concentration-dependent inhibition"}, {"measurement": "IC50", "setting": "human CD40-CD40L; cell-free binding, n=3 independent experiments, read-out: IC50, inhibition of the CD40-CD40L interaction", "result": 0.14, "unit": "µM"}, {"measurement": "IC50", "setting": "OX40-OX40L", "result": 135, "unit": "µM"}, {"measurement": "inhibition of CD40L-induced NF-κB activation (in words)", "setting": "[1]", "result": "concentration-dependent inhibition"}, {"measurement": "IC50", "setting": "[1]", "result": 17, "unit": "µM"}, {"measurement": "inhibition of CD40L-induced MHC-II expression in THP-1 cells (in words)", "setting": "[2]", "result": "concentration-dependent inhibition"}]}
